The numbers were not newly measured in patent US20250302767A1, “TREATMENT OF CANCER AND AUTOIMMUNE DISORDERS USING NANO POLYMERS OF HISTONE DEACETYLASE INHIBITORS” (University of Virginia Patent Foundation, priority 2021, published 2025), which cites them from elsewhere.

In one data set the test system is PTCL. The conditions noted are these: patients with PTCL, single agent, cited from earlier work; for Outcomes: ORR: pivotal trial cited per drug (romidepsin: trial (6) Coiffier et al., 2014); for Outcomes: CR / Outcomes: DOR: pivotal trial cited per drug (romidepsin: trial (6)).
The subject of another data set is ALCL. The conditions noted are these: patients with ALCL, pivotal trials (3, 4); cited from earlier work.

As for `O=C(/C=C/c1cccc(S(=O)(=O)Nc2ccccc2)c1)NO` [Belinostat], in the data set with PTCL, the “Outcomes: ORR” value is recorded as 26%, the “Outcomes: CR” value was 11% and the “Outcomes: DOR” value is given as 13.6 months.

Take `Nc1cc(F)ccc1NC(=O)c1ccc(CNC(=O)/C=C/c2cccnc2)cc1` [Chidamide, N-(2-Amino-4-fluorophenyl)-4-[[[(E)-3-pyridin-3-ylprop-2-enoyl]amino]methyl]benzamide]: in the data set with PTCL, the “Outcomes: ORR” value is reported as 28%, the “Outcomes: CR” value is recorded as 14% and the “Outcomes: DOR” value is listed as 9.9 months.

As for `C#CCC(Cc1cnc2nc(N)nc(N)c2n1)c1ccc(C(=O)N[C@@H](CCC(=O)O)C(=O)O)cc1` (stereo partly drawn) [Pralatrexate], in the data set with PTCL, the “Outcomes: ORR” value is 29%, the “Outcomes: CR” value was 11% and the “Outcomes: DOR” value is listed as 10.1 months.

As for Brentuximab vedotin, in the data set with ALCL, the “Outcomes: CR” value is on record as 57%, the “Outcomes: DOR” value is recorded as 13.2 months and the “Outcomes: ORR” value was 86%.
